Holding throughout (format): in vitro ADME
A short description of one series: Stability in rat plasma. Conditions: in vitro in rat plasma, 1% TCA and methanol as quenchers. The method, then:
S62 and S71 peptides (SEQ ID NOs: 3 and 4, respectively) were incubated in vitro in rat plasma with 1% TCA and methanol as quenchers for a period of time calculated to be reflective of the amount of time the peptides would be subject to in vivo conditions if administered to rats.

For the next series, the system named is Caco-2. In words: Permeability in a Caco-2 assay. Particulars: Caco-2 assay using methanol. As to the method: (§1) Permeability of the S62 and S71 peptides were assessed in a Caco-2 assay using methanol.
(§2) Permeability Ranking: lower is <1×10−6 cm/s; higher is >1×10-6 cm/s.

A short description of series [1]: Permeability in a Caco-2 assay. Conditions: human; for efflux ratio at 10 μM: read-out: Mean (B-A/A-B) Efflux Ratio. As to the method:
as §1, §2

Where [2] appears, read: Caco-2, Assay Conc. 10 μM, without verapamil, read-out: Mean A-B % Recovery.
[3] abbreviates: Caco-2, Assay Conc. 10 μM, without verapamil, read-out: Mean B-A % Recovery.
Where [4] appears, read: Caco-2, with Verapamil 25 uM, Assay Conc. 10 μM, with Verapamil 25 uM, read-out: Mean A-B % Recovery.
The mark [5] stands for this setting: Caco-2, with Verapamil 25 uM, Assay Conc. 10 μM, with Verapamil 25 uM, read-out: Mean B-A % Recovery.
The mark [6] stands for this setting: Caco-2, Assay Conc. 10 μM, without verapamil.

Where two headings read alike, the source gives them in different places. Ends that are not written are not given here.

For orientation: Papp A→B means the apparent permeability from the apical to the basolateral side of a cell layer. A word on the Papp B→A: it is how fast a substance crosses the layer from the basolateral side.

With GAVVWGVTAVKK [S62, GAVVWGVTAVKK], the “recovery of the peptides after incubation in rat plasma” value in the series “Stability in rat plasma” is “not high enough to detect”. The “Permeability (in words)” value in the series with Caco-2 is “neither of the peptides exhibited permeability”. Moreover, the recovery at 10 μM in series [1] (setting [2]) stood at 70.1%; in series [1] (setting [3]), 92.5%; in series [1] (setting [4]) it was 59.7%; in series [1] (setting [5]), 91.3%.
RAVVTGVTAVAE [S71, RAVVTGVTAVAE]: the “recovery of the peptides after incubation in rat plasma” value in “Stability in rat plasma” is listed as “not high enough to detect”. Moreover, the “Permeability (in words)” value with Caco-2 is “neither of the peptides exhibited permeability”. In addition, the recovery at 10 μM came out at 91.4% in series [1] (setting [2]), 74.7% in series [1] (setting [3]), 80.7% in series [1] (setting [4]) and 92.7% in series [1] (setting [5]).
Consider `CNC(=C[N+](=O)[O-])NCCSCc1ccc(CN(C)C)o1` [Ranitidine, reference compound], for which, in series [1] (setting [6]), the Papp A→B at 10 μM came to 0.391 ×10⁻⁶ cm/s, the Papp B→A at 10 μM was 1.03 ×10⁻⁶ cm/s and the efflux ratio at 10 μM came out at 2.65. In addition, in series [1] (setting [2]), the recovery at 10 μM was 87.1%. For the same compound, the recovery at 10 μM in series [1] (setting [3]) came out at 95.2%.
The matching figures for `CC(=O)CC(c1ccccc1)c1c(O)c2ccccc2oc1=O` (stereo not shown) [Warfarin, reference compound]: 36.8 ×10⁻⁶ cm/s, 33.8 ×10⁻⁶ cm/s, 0.917, 93% and 93.4%.
